Laboratory results as given in patent publication US20250215029A1 (Recludix Pharma, Inc., priority 2022, published 2025).

How the values were obtained:
pY641-STAT6 in PBMC = molecular target: T1, pY641-STAT6 in PBMC (Homo sapiens, UniProt P42226); assay: MSD-pSTAT-PBMC Assay (pSTAT6, IL-4 stimulated); assay type: cell-based; conditions: STAT6, PBMC, compound 3 hrs, then 1 ng/mL IL-4 for 10 min; Table 115
T1 construct: Cryopreserved Peripheral Blood Mononuclear Cells (PBMC) are from AllCells; host or cells: cryopreserved PBMC
T1 sequence (P42226 1-847): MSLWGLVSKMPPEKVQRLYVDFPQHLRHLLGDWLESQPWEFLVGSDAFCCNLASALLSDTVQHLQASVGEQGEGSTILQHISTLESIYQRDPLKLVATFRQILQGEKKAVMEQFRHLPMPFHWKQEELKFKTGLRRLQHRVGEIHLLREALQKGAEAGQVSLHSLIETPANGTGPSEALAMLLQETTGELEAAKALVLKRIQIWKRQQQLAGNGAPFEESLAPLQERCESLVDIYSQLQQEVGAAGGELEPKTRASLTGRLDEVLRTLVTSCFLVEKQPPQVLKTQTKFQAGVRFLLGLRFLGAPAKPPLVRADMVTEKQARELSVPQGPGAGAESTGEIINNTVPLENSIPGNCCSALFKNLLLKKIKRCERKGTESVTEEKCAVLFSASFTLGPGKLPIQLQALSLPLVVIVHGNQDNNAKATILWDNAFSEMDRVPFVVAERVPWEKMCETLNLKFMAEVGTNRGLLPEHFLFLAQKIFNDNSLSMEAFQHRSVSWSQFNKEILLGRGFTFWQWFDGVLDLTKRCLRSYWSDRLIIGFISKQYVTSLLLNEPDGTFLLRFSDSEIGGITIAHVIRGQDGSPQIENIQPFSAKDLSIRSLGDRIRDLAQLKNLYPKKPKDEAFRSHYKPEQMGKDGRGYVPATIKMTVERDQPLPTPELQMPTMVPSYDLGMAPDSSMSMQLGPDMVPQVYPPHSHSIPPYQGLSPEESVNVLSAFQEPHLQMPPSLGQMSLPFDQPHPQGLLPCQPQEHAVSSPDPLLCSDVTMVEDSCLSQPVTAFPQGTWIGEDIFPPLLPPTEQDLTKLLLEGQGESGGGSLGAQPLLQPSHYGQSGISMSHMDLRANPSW
How it was run: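 Cells are preincubated with compound for 3 hrs, then stimulated for 10 min, IL-4 at 1 ng/mL driving STAT6 phosphorylation and IL-6 at 10 ng/mL driving STAT3. Phospho-STAT in lysates is quantified by MSD immunoassay, and IC50 is fitted after subtracting unstimulated wells.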

pY705-STAT3 in PBMC = molecular target: T2, pY705-STAT3 in PBMC (Homo sapiens, UniProt P40763); assay: MSD-pSTAT-PBMC Assay (pSTAT3, IL-6 stimulated); assay type: cell-based; conditions: PBMC, compound 3 hrs, then 10 ng/mL IL-6 for 10 min; Table 115; read-out: STAT3
T2 construct: Cryopreserved Peripheral Blood Mononuclear Cells (PBMC) are from AllCells; host or cells: cryopreserved PBMC
How it was run: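 Thawed human PBMC rested overnight in IMDM/10% FBS, then got compound for 3 hrs before a 10 min cytokine pulse: 1 ng/mL IL-4 for pSTAT6, 10 ng/mL IL-6 for pSTAT3. Lysates went to MSD sandwich capture on total STAT6 or STAT3 with phospho-specific detection. IC50 came from background-subtracted, DMSO-normalized signal.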

T2 sequence (P40763 whole entry): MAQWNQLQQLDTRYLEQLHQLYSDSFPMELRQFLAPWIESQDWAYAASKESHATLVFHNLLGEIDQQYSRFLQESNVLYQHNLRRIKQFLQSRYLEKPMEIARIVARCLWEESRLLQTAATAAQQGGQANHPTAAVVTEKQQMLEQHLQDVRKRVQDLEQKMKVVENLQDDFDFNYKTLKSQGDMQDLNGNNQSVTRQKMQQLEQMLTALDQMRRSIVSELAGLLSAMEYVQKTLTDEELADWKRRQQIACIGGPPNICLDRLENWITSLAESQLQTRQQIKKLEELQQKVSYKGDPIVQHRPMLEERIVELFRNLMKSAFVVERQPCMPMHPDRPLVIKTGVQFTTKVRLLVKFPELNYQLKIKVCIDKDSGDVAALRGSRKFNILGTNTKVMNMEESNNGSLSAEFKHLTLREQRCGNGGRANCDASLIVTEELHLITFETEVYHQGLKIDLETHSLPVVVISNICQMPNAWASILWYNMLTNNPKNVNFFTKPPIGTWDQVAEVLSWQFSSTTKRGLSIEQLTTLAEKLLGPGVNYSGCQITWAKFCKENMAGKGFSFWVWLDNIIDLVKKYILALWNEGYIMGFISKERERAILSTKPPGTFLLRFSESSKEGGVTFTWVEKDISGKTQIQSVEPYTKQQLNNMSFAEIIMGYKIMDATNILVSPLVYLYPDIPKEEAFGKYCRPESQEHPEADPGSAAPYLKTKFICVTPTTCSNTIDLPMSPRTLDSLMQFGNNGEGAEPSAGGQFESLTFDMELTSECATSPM

CCCOC(=O)[C@H](C)NP(=O)(Cc1ccc2sc(C(=O)N[C@H]3CCC[C@H]4CC[C@@H](C(=O)N5CC(c6cnccc6OC)C5)N4C3=O)cc2c1)Oc1ccccc1 (stereo partly drawn) [Compound 255, propyl (((2-(((3S,6S,9aS)-3-(3-(4-methoxypyridin-3-yl)azetidine-1-carbonyl)-5-oxooctahydro-1H-pyrrolo[1,2-a]azepin-6-yl)carbamoyl)benzo [b]thiophen-5-yl)methyl)(phenoxy)phosphoryl)-L-alaninate]
IC50 (pY641-STAT6 in PBMC): > 3 µM | IC50 (pY705-STAT3 in PBMC): < 0.1 µM

CCCOC(=O)[C@H](C)NP(=O)(Oc1ccccc1)C(F)c1ccc2sc(C(=O)N[C@H]3CCC[C@H]4CC[C@@H](C(=O)N5CC(c6cnccc6OC)C5)N4C3=O)cc2c1 (stereo partly drawn) [Compound 262, propyl ((fluoro(2-(((3S,6S,9aS)-3-(3-(4-methoxypyridin-3-yl)azetidine-1-carbonyl)-5-oxooctahydro-1H-pyrrolo[1,2-a]azepin-6-yl)carbamoyl)benzo [b]thiophen-5-yl)methyl)(phenoxy)phosphoryl)-L-alaninate]
IC50 (pY641-STAT6 in PBMC): > 3 µM | IC50 (pY705-STAT3 in PBMC): < 0.1 µM

CCCOC(=O)[C@H](C)NP(=O)(Oc1ccccc1)C(F)c1ccc2sc(C(=O)N[C@H]3C[C@H](C)C[C@H]4CC[C@@H](C(=O)N5CC(c6cnccc6F)C5)N4C3=O)cc2c1 (stereo partly drawn) [Compound 263, propyl ((fluoro(2-(((3S,6S,8S,9aR)-3-(3-(4-fluoropyridin-3-yl)azetidine-1-carbonyl)-8-methyl-5-oxooctahydro-1H-pyrrolo[1,2-a]azepin-6-yl)carbamoyl)benzo [b]thiophen-5-yl)methyl)(phenoxy)phosphoryl)-L-alaninate]
IC50 (pY641-STAT6 in PBMC): > 3 µM | IC50 (pY705-STAT3 in PBMC): < 0.1 µM

CCCOC(=O)[C@H](C)NP(=O)(Cc1ccc2sc(C(=O)N[C@H]3CCCC[C@H]4CC[C@@H](C(=O)NCc5cnc6[nH]cnc6c5)N4C3=O)cc2c1)Oc1ccccc1 (stereo partly drawn) [Compound 280, propyl (((2-(((3S,6S,10aS)-3-(((3H-imidazo[4,5-b]pyridin-6-yl)methyl)carbamoyl)-5-oxodecahydropyrrolo [1,2-a]azocin-6-yl)carbamoyl)benzo [b]thiophen-5-yl)methyl)(phenoxy)phosphoryl)-L-alaninate]
IC50 (pY641-STAT6 in PBMC): > 3 µM | IC50 (pY705-STAT3 in PBMC): < 0.1 µM

CCCOC(=O)[C@H](C)NP(=O)(Cc1ccc2sc(C(=O)N[C@H]3C[C@@H](C)C[C@H]4CC[C@@H](C(=O)N5CC(c6cnccc6C)C5)N4C3=O)cc2c1)Oc1ccccc1 (stereo partly drawn) [Compound 284, propyl (((2-(((3S,6S,8R,9aR)-8-methyl-3-(3-(4-methylpyridin-3-yl)azetidine-1-carbonyl)-5-oxooctahydro-1H-pyrrolo[1,2-a]azepin-6-yl)carbamoyl)benzo [b]thiophen-5-yl)methyl)(phenoxy)phosphoryl)-L-alaninate]
IC50 (pY641-STAT6 in PBMC): > 3 µM | IC50 (pY705-STAT3 in PBMC): < 0.1 µM

CCCOC(=O)[C@H](C)NP(=O)(Oc1ccccc1)C(F)c1ccc2sc(C(=O)N[C@H]3C[C@@H](C)C[C@H]4CC[C@@H](C(=O)N5CC(c6cnccc6F)C5)N4C3=O)cc2c1 (stereo partly drawn) [Compound 292, propyl ((fluoro(2-(((3S,6S,8R,9aR)-3-(3-(4-fluoropyridin-3-yl)azetidine-1-carbonyl)-8-methyl-5-oxooctahydro-1H-pyrrolo[1,2-a]azepin-6-yl)carbamoyl)benzo [b]thiophen-5-yl)methyl)(phenoxy)phosphoryl)-L-alaninate]
IC50 (pY641-STAT6 in PBMC): > 3 µM | IC50 (pY705-STAT3 in PBMC): < 0.1 µM

CCCOC(=O)[C@H](C)NP(=O)(Cc1ccc2sc(C(=O)N[C@H]3CC4(CC[C@H]5CC[C@@H](C(=O)N6CC(c7cccnc7)C6)N5C3=O)CC4)cc2c1)Oc1ccccc1 (stereo partly drawn) [Compound 302, propyl (((2-(((3′S,6′S,10a′S)-5′-oxo-3′-(3-(pyridin-3-yl)azetidine-1-carbonyl)octahydro-5′H-spiro[cyclopropane-1,8′-pyrrolo[1,2-a]azocin]-6′-yl)carbamoyl)benzo [b]thiophen-5-yl)methyl)(phenoxy)phosphoryl)-L-alaninate]
IC50 (pY641-STAT6 in PBMC): 1 to 3 µM | IC50 (pY705-STAT3 in PBMC): < 0.1 µM
